Key:
[1] = system: experimental autoimmune encephalomyelitis (EAE); assay: Active EAE induced with MOG peptide 35-55; assay type: in vivo, mouse; settings: 30 mg/kg intraperitoneal twice daily for 7 days
[2] = system: experimental autoimmune encephalomyelitis (EAE); assay: Passive EAE by adoptive transfer of treated 2D2 Th17 cells; assay type: in vivo, mouse
Description: We interrogated whether FGIN-1-27 can influence Th17 dependent pathology in vivo by using a mouse model of passive EAE in which Th17 cells are responsible for driving immuno-pathogenesis. To this end, we sorted naïve CD4^+ T cells (CD4^+Vβ11^+CD62L^hi) from spleen and lymph nodes of “2D2” T cell receptor (TCR) transgenic mice that specifically recognize myelin oligodendrocyte glycoprotein (MOG) peptide and activated them under Th17 polarizing conditions. The cultures were treated with DMSO or FGIN-1-27 during the Th17 differentiation process and cells were reactivated on day 5 for an additional 48 hours and equal numbers of 2D2 Th17 polarized cells treated either with DMSO or FGIN-1-27 were adoptively transferred to recipient mice.
(a) Immunophenotyping of 2D2 TCR transgenic CD4^+ T cells for intracellular IL-17 and IFNγ before adoptive transfer. Cultures were treated with DMSO or FGIN-1-27 during Th17 polarization process. (b) Mean clinical scores of mice following the adoptive transfer of 5 × 10^6 2D2 Th17 cells treated with DMSO or 5 × 10^6 2D2 Th17 cells treated with FGIN-1-27. […] The error bars represent SEM. (c) Mean clinical scores of T cell-deficient (Tcrb^−/−) mice following adoptive transfer of 5 × 10^6 2D2 Th17 cells treated with DMSO or 5 × 10^6 2D2 Th17 cells treated with FGIN-1-27. […] The error bars represent SEM. (d) Enumeration of total mononuclear or 2D2 CD4^+ T cells (CD4^+Vβ11^+) in spleens of mice receiving either DMSO or FGIN-1-27 treated 2D2 T cells. Cells were analyzed at the peak of EAE disease (day 15 post-transfer) by flow cytometry. The error bars represent SD. (e) Enumeration of total CNS mononuclear or CNS-infiltrating 2D2 CD4^+ T cells (CD4^+Vβ11^+) in mice receiving either DMSO or FGIN-1-27 treated 2D2 T cells. Cells were analyzed at the peak of EAE disease (day 15 post-transfer) by flow cytometry. The errors bars represent SD. (f) Intracellular cytokine staining of 2D2 CD4^+ T cells (day 15 post-transfer) for IL-17, IFNγ and GM-CSF from the CNS of mice that received either DMSO or FGIN-1-27 treated cells. The error bars represent SD.
Naïve CD4^+ T cells (CD4^+Vβ11^+CD62L^hi) were sorted from the spleens and lymph nodes of 2D2 TCR transgenic mice and polarized towards Th17 lineage in the presence of irradiated splenocytes (5:1 ratio) and 2.5 μg/ml anti-CD3 (145-2C11, BioXCell), 20 μg/ml anti-IL-4 (11B11, BioXCell), 20 μg/ml anti-IFNγ (XMG1.2, BioXCell), 30 ng/ml mIL-6 and 3 ng/ml hTGF-β1 (Miltenyi Biotec). The following day, cells were treated with either DMSO or FGIN-1-27 (10 μM) and IL-23 (10 ng/ml; R&D Systems) was added after 60 h of activation. On day 5 of culture, cells were reactivated on plates precoated with 2 μg/ml of anti-CD3 and anti-CD28 (PV1, BioXCell) for 48 h, and 5 million cells were adoptively transferred to recipient mice to induce passive-transfer EAE. Classical EAE symptoms were scored daily according to standard criteria: 0, asymptomatic; 1, flaccid tail; 2, hind-limb weakness and impaired righting ability; 3, hind-limb paralysis; 4, front- and hind-limb paralysis; 5, moribund or death.

[3] = set-up: method as in PMID 21119734, PMID 1326631, PMID 29698632; settings: cited from earlier work
[4] = system: S6 ribosomal protein (Ser 235/236) and mTOR (Ser 2448); assay: Phospho S6 and phospho mTOR staining; assay type: cell-based, mouse; settings: 10, 5 and 2.5 µM
Description: For phospho-S6 analyses, cells were cultured for 3 hours in Th17 polarization media on anti-CD3/CD28 coated plates. Cells were then fixed after fixation and permeabilization with a Transcription Factor Staining kit (eBioscience) and stained with anti-phospho-S6 antibody (S235/236, Cell Signaling) and anti-CD4. Dead cells were excluded using Live/Dead stain prior to fixation. For mTOR analyses, anti-phospho-mTOR antibody was used (Ser2448, eBioscience). page 6: […] blot analysis for phosphorylated eIF2α and ATF4 24 hours after treatment with DMSO or FGIN-1-27 (5 and 10 μM). (b) Intracellular phospho S6 ([…]/236) Th17 cells treated with DMSO or FGIN-1-27 […] The black line represents DMSO and the grey filled histogram represent FGIN-1-27 (10μM). The dotted lines (5μ M) and the dashed line represents staining after 2.5μM of FGIN-1-27 treatment. (c) Intracellular phospho mTOR ([…]) Th17 cells treated with DMSO or FGIN-1-27 […] The black line represents DMSO and the grey filled histogram represent FGIN-1-27 (10μM). The dotted lines (5μ M) and the dashed line represents staining after 2.5μM of FGIN-1-27 treatment.

CCCCCCN(CCCCCC)C(=O)Cc1c(-c2ccc(F)cc2)[nH]c2ccccc12 [FGIN-1-27, N, N-di-n-hexyl 2-(4-fluorophenyl) indole-3-acetamide]
onset or severity of the symptoms [1]: did not affect onset or severity
onset and severity of EAE ([2]; T cell deficient (Tcrb−/−) recipient mice, p = 0.0067): delayed onset and reduced severity of EAE
2D2 CD4+ T cells recovered from the CNS ([2]; day 15 post-transfer): fewer
2D2 CD4+ T cells recovered from the spleens ([2]; day 15 post-transfer): higher number
IFNγ and GM-CSF production of CNS 2D2 CD4+ T cells ([2]; day 15 post-transfer): intact
percentage and absolute numbers of IL-17 producing 2D2 CD4+ T cells from the CNS ([2]; day 15 post-transfer): significant reduction
IL-17 producing 2D2 T cells before adoptive transfer ([2]; pre-transfer, 10 μM during Th17 polarization): reduced percentage of IL-17 producing cells
disease symptoms (mean clinical scores) ([2]; recipient mice, 5 × 10^6 treated 2D2 Th17 cells, p < 0.02): much milder disease symptoms
crossing of the blood brain barrier [3]: can cross the blood brain barrier
phosphorylation of S6 ribosomal protein (Ser 235/236) and mTOR (Ser 2448) [4]: dose-dependent decrease

From article PMC7048748, “Anxiolytic Drug FGIN-1-27 Ameliorates Autoimmunity by Metabolic Reprogramming of Pathogenic Th17 Cells” (Scientific Reports, 2020)
